This note sets out measurements from paper PMC11237924, “A neutral invertase controls cell division besides hydrolysis of sucrose for nutrition during germination and seed setting in rice” (iScience, 2024).

In data set [1] the target is T1, OsNIN8 (MBP-OsNIN8), neutral invertase 8 (Oryza sativa, UniProt Q69T31, E501A).
T1 construct: gene CINV1; N-terminal MBP fusion (pETMALc-H), tag kept, expressed in E. coli BL21(DE3), amylose resin purified
T1 sequence (Q69T31 1-562 E501A): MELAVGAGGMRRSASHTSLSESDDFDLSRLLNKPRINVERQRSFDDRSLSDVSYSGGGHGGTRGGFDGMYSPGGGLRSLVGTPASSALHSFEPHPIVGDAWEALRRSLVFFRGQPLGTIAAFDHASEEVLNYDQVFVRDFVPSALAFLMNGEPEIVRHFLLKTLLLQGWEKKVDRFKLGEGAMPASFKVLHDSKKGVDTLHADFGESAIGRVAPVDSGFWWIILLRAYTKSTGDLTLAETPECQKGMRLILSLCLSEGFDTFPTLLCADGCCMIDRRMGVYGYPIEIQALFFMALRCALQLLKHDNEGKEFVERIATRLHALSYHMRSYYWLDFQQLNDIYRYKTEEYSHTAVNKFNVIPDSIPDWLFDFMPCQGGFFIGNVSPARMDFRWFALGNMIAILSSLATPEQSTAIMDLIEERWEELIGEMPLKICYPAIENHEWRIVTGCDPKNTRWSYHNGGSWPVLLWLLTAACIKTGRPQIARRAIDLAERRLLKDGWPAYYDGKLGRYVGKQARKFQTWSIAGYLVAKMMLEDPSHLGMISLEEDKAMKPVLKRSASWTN
As to the kind of experiment: ITC incremental titration. The data set is classed as binding. Conditions: 25 °C, 0.1 mM protein, 10 mM sucrose in syringe; catalytic-residue mutant.

Data set [2] concerns the target T2, OsNIN8 (MBP-OsNIN8), neutral invertase 8 (Oryza sativa, UniProt Q69T31, D275A/E501A).
T2 construct: gene CINV1; N-terminal MBP fusion (pETMALc-H), tag kept, expressed in E. coli BL21(DE3), amylose resin purified
T2 sequence (Q69T31 1-562 D275A/E501A): T1 sequence (Q69T31 1-562 E501A) with D275A
In words: ITC incremental titration. The data set is classed as binding. The note with it: 25 °C, 0.1 mM protein, 10 mM sucrose in syringe; catalytic-residue mutant.

Data set [3] has as its target T3, OsNIN8 (MBP-OsNIN8), neutral invertase 8 (Oryza sativa, UniProt Q69T31, G461R).
T3 construct: gene CINV1; N-terminal MBP fusion (pETMALc-H), tag kept, expressed in E. coli BL21(DE3), amylose resin purified
T3 sequence (Q69T31 1-562 G461R): T1 sequence (Q69T31 1-562 E501A) with G461R, A501E
As to the kind of experiment: pulldown on amylose magnetic beads with GC-TOF MS; ITC titration. Format: binding. Conditions: 50 mM potassium phosphate pH 6.4, 25 °C; OsNIN8m, retains residual sucrose hydrolysis.

Data set [4] deals with T4, OsNIN8 (MBP-OsNIN8), neutral invertase 8 (Oryza sativa, UniProt Q69T31, D275A).
T4 construct: gene CINV1; N-terminal MBP fusion (pETMALc-H), tag kept, expressed in E. coli BL21(DE3), amylose resin purified
T4 sequence (Q69T31 1-562 D275A): T1 sequence (Q69T31 1-562 E501A) with D275A, A501E
As to the kind of experiment: ITC incremental titration. Format: binding. The note with it: 25 °C, 0.1 mM protein, 10 mM sucrose in syringe; catalytic-residue mutant.

Substrate in the data set “purified protein”: OC[C@H]1O[C@@](CO)(O[C@H]2O[C@H](CO)[C@@H](O)[C@H](O)[C@H]2O)[C@@H](O)[C@@H]1O
In words: purified protein. Format: biochemical, Oryza sativa. The note with it: 50 mM potassium phosphate pH 6.4, fit over 0-20 mM sucrose (substrate inhibition above 20 mM).

Where a chain is given by its changes, count along the chain named.

Take `OC[C@H]1O[C@@](CO)(O[C@H]2O[C@H](CO)[C@@H](O)[C@H](O)[C@H]2O)[C@@H](O)[C@@H]1O` [Sucrose]: the ITC incremental titration entry in data set [1] is “all had not hydrolytic activity on sucrose, showed their bindings to sucrose were exotherm”; in data set [2] it was “all had not hydrolytic activity on sucrose, showed their bindings to sucrose were exotherm”; in data set [4] it was “all had not hydrolytic activity on sucrose, showed their bindings to sucrose were exotherm”. Further, the “pulldown on amylose magnetic beads with GC-TOF MS; ITC titration” value in data set [3] is “OsNIN8m bound more sucrose than OsNIN8 did”.

B1: OsNIN8 (MBP-OsNIN8), neutral invertase 8 (Oryza sativa Japonica Group) (protein)
chain: T1 sequence (Q69T31 1-562 E501A) with A501E
notes: N-terminal MBP fusion (pETMALc-H), tag kept, expressed in E. coli BL21(DE3), amylose resin purified
For orientation: Km means the concentration of substrate that gives half-maximal velocity. For B1, the Michaelis-Menten constant (Km) in “purified protein” turned out to be 2718 ± 347 µM.
